What was measured:
Test in all cases: relative viability (nuclei count vs DMSO), 5 days (fraction); higher = more cells survive
[1] = compound: CC(=O)c1c(C)c2cnc(Nc3ccc(N4CCNCC4)cn3)nc2n(C2CCCC2)c1=O [Palbociclib] + CS(=O)(=O)N1CCN(Cc2cc3nc(-c4cccc5[nH]ncc45)nc(N4CCOCC4)c3s2)CC1 [Pictilisib] (partner 1 µM)
How it was run: (§1)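 Lung cancer cell lines, seeded in 1536-well plates, were treated the following day by pin tool with a single drug or with five library-drug doses (not always all listed) in √10 steps on top of a fixed anchor-drug dose. Cells were fixed and nuclei stained in one step after 5 days, and nuclei were counted. Relative viability is the nuclei count for treated wells divided by that for vehicle wells, reported as medians of duplicate plates.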

[2] = compound: CC(=O)c1c(C)c2cnc(Nc3ccc(N4CCNCC4)cn3)nc2n(C2CCCC2)c1=O [Palbociclib] + Cc1cc(Nc2cc(N3CCN(C)CC3)nc(Sc3ccc(NC(=O)C4CC4)cc3)n2)n[nH]1 [Tozasertib] (partner 0.1 µM)
How it was run: as §1

[3] = compound: CC(=O)c1c(C)c2cnc(Nc3ccc(N4CCNCC4)cn3)nc2n(C2CCCC2)c1=O [Palbociclib] + Nc1ncn([C@H]2C[C@H](O)[C@@H](CO)O2)c(=O)n1 [Decitabine] (partner 2 µM)
How it was run: as §1

[4] = compound: CC(=O)c1c(C)c2cnc(Nc3ccc(N4CCNCC4)cn3)nc2n(C2CCCC2)c1=O [Palbociclib] + Nc1nc2[nH]cc(CCc3ccc(C(=O)N[C@@H](CCC(=O)O)C(=O)O)cc3)c2c(=O)[nH]1 [Pemetrexed] (partner 0.2 µM)
How it was run: as §1

Cell Line | relative viability ([1]; first compound 0.01 µM) | relative viability ([1]; first compound 0.03162 µM) | relative viability ([1]; first compound 0.1 µM) | relative viability ([1]; first compound 0.3162 µM) | relative viability ([1]; first compound 1 µM) | relative viability ([2]; first compound 0.01 µM) | relative viability ([2]; first compound 0.03162 µM) | relative viability ([2]; first compound 0.1 µM) | relative viability ([2]; first compound 0.3162 µM) | relative viability ([2]; first compound 1 µM) | relative viability ([3]; first compound 0.01 µM) | relative viability ([3]; first compound 0.03162 µM) | relative viability ([3]; first compound 0.1 µM) | relative viability ([3]; first compound 0.3162 µM) | relative viability ([3]; first compound 1 µM) | relative viability ([4]; first compound 0.01 µM) | relative viability ([4]; first compound 0.03162 µM) | relative viability ([4]; first compound 0.1 µM) | relative viability ([4]; first compound 0.3162 µM) | relative viability ([4]; first compound 1 µM)
NCI-H1437 | 0.424 | 0.38 | 0.366 | 0.317 | 0.162 | 0.368 | 0.351 | 0.287 | 0.376 | 0.307 | 0.582 | 0.551 | 0.569 | 0.494 | 0.408 | 0.33 | 0.338 | 0.339 | 0.33 | 0.269
NCI-H1650 | 0.548 | 0.223 | 0.383 | 0.414 | 0.312 | 0.48 | 0.317 | 0.44 | 0.337 | 0.338 | 0.414 | 0.427 | 0.474 | 0.421 | 0.349 | 0.373 | 0.316 | 0.302 | 0.293 | 0.231
NCI-H1651 | 0.573 | 0.524 | 0.499 | 0.529 | 0.355 | 0.749 | 0.603 | 0.665 | 0.617 | 0.685 | 0.636 | 0.535 | 0.636 | 0.555 | 0.451 | 0.572 | 0.563 | 0.562 | 0.511 | 0.394
NCI-H1666 | 0.477 | 0.386 | 0.345 | 0.297 | 0.277 | 0.642 | 0.585 | 0.539 | 0.47 | 0.458 | 0.725 | 0.67 | 0.721 | 0.682 | 0.565 | 0.802 | 0.822 | 0.798 | 0.772 | 0.638

— the supplement of paper PMC10307832
